Test [1] concerns the target T1, hSERT T583A (S2 site mutant) (Homo sapiens, UniProt P31645, T583A).
T1 construct: expressed in transfected cells; host or cells: HeLa (ATCC CCL-2), transient, pcDNA3.1
The test can be described thus: APP+ transport in HeLa cells expressing hSERT mutant T583A. The conditions noted are these: 2 μM APP+ 5 min, intact HeLa cells, read-out: SAG IC50 for transport. Format: cell-based. On the procedure: (§1) The mutants used for this study were constructed in the WT background carried by the expression plasmids for hSERT, hDAT, or hNET under the control of CMV promotor in pcDNA3.1 vector, respectively. All mutants were generated using the Mut Express II Fast Mutagenesis Kit (Vazyme) and confirmed by full-length DNA sequencing.
(§2) HeLa cells were cultured in Dulbecco’s Modified Eagle’s Medium supplemented with 10% fetal bovine serum, 100 units/ml penicillin, and 100 μg/ml streptomycin at 37°C in a humidified 5% CO2 incubator. Cells were plated in a 6-well culture plate and grown overnight. Cells at ∼70% confluence were transfected with hSERT, hDAT, or hNET cDNA in pcDNA3.1 by lipofectamine 2000. […] After grown for additional 12–16 h, the cells were assayed for APP^+ or ASP^+ fluorescence image acquisition.
(§3) The cells expressing WT or mutants of hSERT, hDAT, or hNET were wet mounted on polylysine coated glass slides in 12-well plates and applied for the indicated treatments. […] The extent of APP^+ accumulated in the cells was determined by confocal imaging analysis. ASP^+ binding to SERT in the cell membrane was measured with digitonin-permeabilized cells ([Li M. et al., 2022a]). […] After removing excess ASP^+ by rapid washing three times, ASP^+ binding was determined by confocal imaging analysis.
(§4) Images were analyzed using Zen Blue software. […]

For test [2], the target named is T2, hSERT T497A (S2 site mutant) (Homo sapiens, UniProt P31645, T497A).
T2 construct: expressed in transfected cells; host or cells: HeLa (ATCC CCL-2), transient, pcDNA3.1
The test can be described thus: APP+ transport in HeLa cells expressing hSERT mutant T497A. Type of test: cell-based. Conditions: 2 μM APP+ 5 min, intact HeLa cells, read-out: SAG IC50 for transport. The protocol: as §1, §2, §3, §4

The target of test [3] is T3, hSERT Q562N (S2 site mutant) (Homo sapiens, UniProt P31645, Q562N).
T3 construct: expressed in transfected cells; host or cells: HeLa (ATCC CCL-2), transient, pcDNA3.1
The test can be described thus: APP+ transport in HeLa cells expressing hSERT mutant Q562N. Format: cell-based. The conditions noted are these: 2 μM APP+ 5 min, intact HeLa cells, read-out: SAG IC50 for transport. On the procedure:
as §1, §2, §3, §4

Test [4] has as its target T4, hDAT F320A (S2 site mutant) (Homo sapiens, UniProt Q01959, F320A).
T4 construct: expressed in transfected cells; host or cells: HeLa
The test is described as follows: APP+ transport in HeLa cells expressing hDAT mutant F320A. Type of test: cell-based. On the procedure:
as §1, §2, §3, §4

Test [5] addresses T5, WT-hDAT (Homo sapiens, UniProt Q01959).
T5 construct: expressed in transfected cells; host or cells: HeLa
The test can be described thus: APP+ transport (uptake) in HeLa cells expressing WT-hDAT. Format: cell-based. The conditions noted are these: WT hDAT; APP+ transport, intact HeLa cells; read-out: SAG IC50. The protocol: (§5) HeLa cells were cultured in Dulbecco’s Modified Eagle’s Medium supplemented with 10% fetal bovine serum, 100 units/ml penicillin, and 100 μg/ml streptomycin at 37°C in a humidified 5% CO2 incubator. Cells were plated in a 6-well culture plate and grown overnight. Cells at ∼70% confluence were transfected with hSERT, hDAT, or hNET cDNA in pcDNA3.1 by lipofectamine 2000. Transfected cells were incubated for 24 h at 37°C with 5% CO2 and then transferred into a 12-well plate placed with polylysine coated slides. After grown for additional 12–16 h, the cells were assayed for APP^+ or ASP^+ fluorescence image acquisition.
as §3
(§6) Images were analyzed using Zen Blue software.
Nonlinear regression fits of experimental and calculated data were performed with Origin (Origin Lab). […]

Test [6] addresses T6, hNET D473N (S2 site mutant) (Homo sapiens, UniProt P23975, D473N).
T6 construct: expressed in transfected cells; host or cells: HeLa
The test is described as follows: APP+ transport in HeLa cells expressing hNET mutant D473N. Type of test: cell-based. On the procedure:
as §1, §5
The cells expressing WT or mutants of hSERT, hDAT, or hNET were wet mounted on polylysine coated glass slides in 12-well plates and applied for the indicated treatments. In brief, the cells were washed twice with 500 μl KRH buffer containing 20 mM HEPES, pH 7.4, 120 mM NaCl, 1.3 mM KCl, 2.2 mM CaCl2, 1.2 mM MgSO4, and 0.1% (w/v) glucose. […] Excess APP^+ was then removed by rapid washing three times with 500 μl KRH buffer. The extent of APP^+ accumulated in the cells was determined by confocal imaging analysis. ASP^+ binding to SERT in the cell membrane was measured with digitonin-permeabilized cells ([Li M. et al., 2022a]). […] After removing excess ASP^+ by rapid washing three times, ASP^+ binding was determined by confocal imaging analysis.
as §6
Nonlinear regression fits of experimental and calculated data were performed with Origin (Origin Lab). The statistical analysis given was from multiple experiments. Data with error bars in the figures represent the mean ± SD for at least 10 measurements per condition in one experiment or the mean ± SEM from at least three experiments as indicated, respectively. […]

The target in test [7] is T7, hSERT D328A (S2 site mutant) (Homo sapiens, UniProt P31645, D328A).
T7 construct: expressed in transfected cells; host or cells: HeLa (ATCC CCL-2), transient, pcDNA3.1
The test can be described thus: APP+ transport in HeLa cells expressing hSERT mutant D328A. Type of test: cell-based. Conditions: 2 μM APP+ 5 min, intact HeLa cells, read-out: SAG IC50 for transport. On the procedure:
as §1, §2, §3, §4

Test [8] addresses T8, hSERT E494Q (S2 site mutant) (Homo sapiens, UniProt P31645, E494Q).
T8 construct: expressed in transfected cells; host or cells: HeLa (ATCC CCL-2), transient, pcDNA3.1
The test can be described thus: ASP+ binding in digitonin-permeabilized HeLa cells expressing hSERT E494Q. Conditions: 10 μM ASP+, read-out: SAG IC50 for binding. The protocol: as §1, §2, §3, §4

Some results are limits rather than exact numbers.

We go through one substance from paper PMC9649612, “Molecular docking and biochemical validation of (-)-syringaresinol-4-O-β-D-apiofuranosyl-(1→2)-β-D-glucopyranoside binding to an allosteric site in monoamine transporters” (Frontiers in Pharmacology, 2022).

T6 sequence (P23975 whole entry D473N): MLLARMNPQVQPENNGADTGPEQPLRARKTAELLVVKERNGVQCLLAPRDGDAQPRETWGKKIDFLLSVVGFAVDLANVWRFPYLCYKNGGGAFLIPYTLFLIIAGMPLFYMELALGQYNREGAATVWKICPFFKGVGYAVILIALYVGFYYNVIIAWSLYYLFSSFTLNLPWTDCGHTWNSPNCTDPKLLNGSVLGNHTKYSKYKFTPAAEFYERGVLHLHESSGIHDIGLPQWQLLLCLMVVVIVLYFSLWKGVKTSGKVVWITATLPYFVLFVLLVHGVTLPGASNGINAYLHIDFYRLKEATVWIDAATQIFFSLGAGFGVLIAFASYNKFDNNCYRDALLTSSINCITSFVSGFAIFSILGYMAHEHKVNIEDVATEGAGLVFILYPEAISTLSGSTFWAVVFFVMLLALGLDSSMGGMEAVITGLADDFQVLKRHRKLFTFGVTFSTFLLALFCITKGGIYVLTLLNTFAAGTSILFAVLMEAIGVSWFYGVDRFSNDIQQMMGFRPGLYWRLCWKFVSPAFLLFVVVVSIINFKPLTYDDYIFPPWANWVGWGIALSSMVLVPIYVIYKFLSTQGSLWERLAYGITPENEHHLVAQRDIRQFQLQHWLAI
T4 sequence (Q01959 whole entry F320A): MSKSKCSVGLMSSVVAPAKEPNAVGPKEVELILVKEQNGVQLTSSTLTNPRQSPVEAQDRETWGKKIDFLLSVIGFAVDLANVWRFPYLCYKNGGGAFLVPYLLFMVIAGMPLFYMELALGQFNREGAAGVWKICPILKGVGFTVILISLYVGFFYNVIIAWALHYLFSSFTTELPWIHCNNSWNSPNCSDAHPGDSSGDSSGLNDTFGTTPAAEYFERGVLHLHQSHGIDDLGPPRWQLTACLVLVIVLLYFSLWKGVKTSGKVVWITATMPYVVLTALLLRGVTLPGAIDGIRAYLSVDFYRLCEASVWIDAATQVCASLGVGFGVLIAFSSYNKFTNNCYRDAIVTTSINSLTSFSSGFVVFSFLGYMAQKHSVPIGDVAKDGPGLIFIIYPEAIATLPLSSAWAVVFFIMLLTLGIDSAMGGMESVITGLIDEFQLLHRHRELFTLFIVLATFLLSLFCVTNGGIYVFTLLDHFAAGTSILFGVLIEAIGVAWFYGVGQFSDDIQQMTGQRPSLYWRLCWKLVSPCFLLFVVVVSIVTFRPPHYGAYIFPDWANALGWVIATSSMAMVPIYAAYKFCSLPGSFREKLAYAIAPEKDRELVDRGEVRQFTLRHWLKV
T5 sequence (Q01959 whole entry): as the sequence (Q01959 whole entry F320A) above, with A320F counted along it

The IC50 is the concentration that inhibits the measured activity by half. With “(-)-Syringaresinol-4-O-β-D-apiofuranosyl-(1→2)-β-D-glucopyranoside [SAG]”, the half-inhibitory concentration (IC50) in test [1] is > 1 mM; in test [2] it was 111 ± 2 µM; in test [3] it was 289 ± 11 µM; in test [4] (hDAT F320A, intact HeLa cells, read-out: SAG IC50), 16.8 ± 0.7 µM; in test [5], 31.9 ± 2.8 µM; in test [6] (hNET D473N, intact HeLa cells, read-out: SAG IC50) it was 42.7 ± 4.7 µM. Besides, the IC50 in test [7] stood at 113 ± 5 µM; in test [8], 192 ± 16 µM. Moreover, in test [4] (hDAT F320A vs WT-hDAT), the “Decrease in SAG IC50 compared with WT” value is given as ~50%. Further, the “Change in SAG inhibition potency compared to WT” value in test [6] (hNET D473N vs WT-hNET) was “little change”. Further, the “Decrease in SAG inhibition potency compared with WT” value in test [6] (hNET D473N vs WT-hNET) is “less than 3 folds”.
